The text below walks through data of article PMC8620685, “Effect of Selected Silyl Groups on the Anticancer Activity of 3,4-Dibromo-5-Hydroxy-Furan-2(5H)-One Derivatives” (Pharmaceuticals, 2021).

Data set [1] deals with HCT 116 wt. Nature of the data set: MTT assay, HCT 116 wt. It counts as cell-based, human. As for the experimental part: (§1) The in vitro antitumor activities of the MBA and its derivatives (Table 2) were assayed against a panel of human cancer cell lines (HCT116, HCT-116 ^−/−p53, HT-29, MCF-7, SJSA-1, U2OS, HepG2 and Hep3B) using the MTT assay. As a reference drug we used 5-fluorouracil (5-FU). […] On the basis of in vitro antiproliferative activities, compounds 3b and 3c were selected for further mechanistic studies in the HCT-116 cell line.
(§2) Human cells lines: colon cancer (HCT-116 wt, HT-29), non-small lung carcinoma (A549), and bronchial epithelial cells (BEAS-2B) were obtained from American Type Culture Collection (ATCC, Manassas, VA, USA). Isogenic cell line HCT 116 p53^−/− (deleted both p53 alleles) were a gift from Dr. Bert Vogelstein. Other cell lines, namely MCF-7, SJSA-1, U2OS, HepG2, and Hep3B were received from the collection stored at Centre of Biotechnology of Silesian University of Technology. All cells were grown in DMEM with a high glucose medium (Sigma-Aldrich, Taufkirchen, Germany) supplemented with 10% (v/v) inactivated fetal bovine serum (FBS) (EURx, Gdańsk, Poland) and 1% antibiotics (10,000 μg/mL of streptomycin and 10,000 units/ml of penicillin) (Sigma-Aldrich, Taufkirchen, Germany) at 37 °C in humidified 5% CO2. The maximum concentration of DMSO in the culture media was 0.4%.
(§3) 5 × 10^3 cells per well for the MCF-7 cell line and 2.5 × 10^3 cells per well for the other cell lines were seeded in 96-well plates to adhere for 24 h. Afterward, the cells were treated with tested compounds. After 72 hours of incubation, 50 μL 0.5 mg/ml solution of MTT (3-(4,5-dimethylthiazol-2-yl)-2,5-diphenyl-2H-tetrazolium bromide) were added to each well and the plates were incubated for 3 h at 37 °C. Next, the MTT solution was removed from the plates and formed formazan crystals were dissolved in 2-propanol (Avantor Performance Materials, Gliwice, Poland) containing 0.04 M hydrochloric acid (Avantor Performance Materials, Gliwice, Poland). The absorbance was measured at 570 nm wavelength using a multiwall plate reader (BioTek, Winooski, VT, USA). The experiment was performed at a minimum of 3 independent replicates. Cell viability was set as a percentage versus vehicle control. IC50 was defined as a concentration of a drug that decreased cell viability by 50% relative to the untreated control.

Data set [2] deals with HCT 116 p53−/−. Nature of the data set: MTT assay, HCT 116 p53−/−. It counts as cell-based. Conditions: Homo sapiens, read-out: IC50 (cytotoxicity), HCT 116 p53−/−. The method, then: as §1, §2, §3
(Formazan colour is commonly taken as a measure of viable cells.)

In data set [3] the test system is HT-29. The data set can be described thus: MTT assay, HT-29. It counts as cell-based. The settings on record: Homo sapiens, read-out: IC50 (cytotoxicity), HT-29. The method, then:
as §1, §2, §3

The test system of data set [4] is MCF-7. Nature of the data set: MTT assay, MCF-7. It counts as cell-based, human. The method, then:
as §1, §2, §3

Data set [5] relates to U2OS. The data set can be described thus: MTT assay, U2OS. It counts as cell-based. Conditions: Homo sapiens, MTT, 72 h incubation, read-out: IC50 (cytotoxicity), U2OS. The method, then:
as §1, §2, §3

The subject of data set [6] is SJSA-1. Nature of the data set: MTT assay, SJSA-1. It counts as cell-based. Conditions: Homo sapiens, SJSA-1; MTT, 72 h incubation; read-out: IC50 (cytotoxicity), SJSA-1. As for the experimental part: as §1, §2, §3
The subject of data set [7] is HepG2. The data set can be described thus: MTT assay, HepG2. It counts as cell-based. Conditions: Homo sapiens, HepG2; MTT, 72 h incubation; read-out: IC50 (cytotoxicity), HepG2. As for the experimental part:
as §1, §2
as §3, with “The experiment was performed at a minimum of 3 independent replicates. Cell viability was set as a percentage versus vehicle control. IC50 was defined as a concentration of a drug that decreased cell viability by 50% relative to the untreated control.” left out

Data set [8] has as its system Hep3B. The data set can be described thus: MTT assay, Hep3B. Conditions: Homo sapiens, MTT, 72 h incubation, read-out: IC50 (cytotoxicity), Hep3B. It counts as cell-based. As for the experimental part: as §1, §2, §3
Data set [9] has as its system A549. The data set can be described thus: MTT assay, NSCLC cell line A549. It counts as cell-based, human. Conditions: for IC50: Homo sapiens, A549, MTT, 72 h incubation, read-out: IC50 (cytotoxicity), A549; for SI: selectivity, A549 versus BEAS-2B. As for the experimental part: (§4) One of the major drawbacks of currently used anticancer drugs is their low selectivity, which often leads to undesired side effects that may be harmful to patients. Overcoming this challenging task requires special attention at the pre-clinical development level. To check whether silyl group incorporation may affect the selectivity of compounds towards cancer cells, MBA and all its new silyl derivatives were tested for their efficacy on noncancerous BEAS-2B and cancerous A549 cells line. […] In contrast, compounds 3a and 3d were more cytotoxic to A549 cells with SI values 6.05 and 1.72, respectively. Strikingly, those two compounds have similar cLogP values 3.08 and 3.22, respectively.
as §2, §3

The nature of data set [10]: MTT assay, normal bronchial epithelium cell line BEAS-2B. It counts as cell-based. Conditions: human, BEAS-2B cells (noncancerous bronchial epithelial cells); MTT, 72 h incubation; noncancerous cells; read-out: IC50 (cytotoxicity), BEAS-2B. As for the experimental part:
as §4, §2, §3

The subject of data set [11] is HCT-116 cells. The data set can be described thus: Annexin V-FITC/PI apoptosis assay. It counts as cell-based, human. Conditions: HCT-116, statement in discussion. The method, then:
To verify this thesis, we utilized annexin-V/PI double staining of cells, which were subsequently subjected to flow cytometric analysis.
The HCT 116 cells were seeded in 6-well plate (Nunc, ThermoFisher, Waltham, MA, USA) at a density of 5 × 10^4 cells/well and allowed to attach. After 24 h the medium was replaced with tested compounds. The cells were then incubated for 24 h at 37 °C. Next, both floating and adherent cells were harvested and centrifuged at 600× g. The cells were washed with PBS (phosphate buffered saline) (Sigma-Aldrich, Taufkirchen, Germany) and we followed instructions from the manufacturer of the Annexin V-FITC Apoptosis Detection Kit (Biotool, Jupiter, FL, USA). Fluorescence was measured using a Becton Dickinson FACS Aria III sorter (BD Company, San Diego, CA, USA). Experiments were repeated at least twice. Data were analyzed using FCE Express 7 Software (DeNovo Software, Pasadena, CA, USA).

Where [12] appears, read: Homo sapiens, HCT-116, 72 h, read-out: IC50 (cytotoxicity), HCT 116 wt, MTT, 72 h incubation.
[13] abbreviates: Homo sapiens, MCF7, 72 h, read-out: IC50 (cytotoxicity), MCF-7, MTT, 72 h incubation.

The structures appear in SMILES notation. Like-named read-outs stand apart in the source and are kept apart here.

Consider `O=c1[nH]cc(F)c(=O)[nH]1` [5FU, 5-fluorouracil, reference compound], for which the IC50 in data set [1] (Homo sapiens, HCT-116, 72 h, MTT, 72 h incubation, read-out: IC50 (cytotoxicity), HCT 116 wt) was 6.3 ± 1 µM; in data set [2] (HCT-116, MTT, 72 h incubation), 13.4 ± 1.5 µM; in [3] (HT-29, MTT, 72 h incubation), 32.8 ± 4.7 µM; in [4] (Homo sapiens, MCF7, 72 h, MTT, 72 h incubation, read-out: IC50 (cytotoxicity), MCF-7), 29.7 ± 1.4 µM; in [5], 89.8 ± 2.1 µM.

With `CC(C)(C)[Si](C)(C)OC1OC(=O)C(Br)=C1Br` (stereo not drawn) [Compound 3a, 3,4-Dibromo-5-(tert-butyldimethylsilyloxy)-furan-2(5H)-one], the IC50 in data set [1] (setting [12]) stood at 1.4 µM; in data set [1] (human, 72 h), 1.3 ± 0.12 µM; in [2] (HCT-116, 72 h), 21.4 ± 3.4 µM; in [3] (HT-29, 72 h), 88.7 ± 8.2 µM; in data set [4] (setting [13]), 186 ± 14.2 µM; in data set [6], 196 ± 5.4 µM. Moreover, the IC50 came to 135 ± 6 µM in [7], 135 ± 6.1 µM in data set [8] and 23.4 ± 6.6 µM in [9]. Further, in data set [9], the SI came out at 6.05. Moreover, the IC50 at 72 h in [10] is 142 ± 23.1 µM. Moreover, in data set [11], the “induction of apoptosis / cell death in HCT-116” value is given as “failed to induce apoptosis”.

Regarding `CC[Si](CC)(CC)OC1OC(=O)C(Br)=C1Br` (stereo not drawn) [Compound 3d, 3,4-Dibromo-5-(trietylsilyloxy)-furan-2(5H)-one], the IC50 amounted to 1.6 ± 0.4 µM in data set [1] (setting [12]); 4.4 ± 0.4 µM in data set [2] (HCT-116, 72 h); 89 µM in data set [4] (setting [13]); 89.2 ± 6 µM in data set [4] (human, 72 h); 4.7 ± 0.1 µM in [9]. This compound also had an SI in data set [9] of 1.72. For the same compound, the IC50 at 72 h in [10] amounted to 8.1 ± 1.2 µM.
